Measurements: publication PMC4774501 (Biomolecules & Therapeutics, 2016)

Target: T1, vitamin D receptor (VDR) (Homo sapiens, UniProt P11473)
T1 sequence (P11473 118-427): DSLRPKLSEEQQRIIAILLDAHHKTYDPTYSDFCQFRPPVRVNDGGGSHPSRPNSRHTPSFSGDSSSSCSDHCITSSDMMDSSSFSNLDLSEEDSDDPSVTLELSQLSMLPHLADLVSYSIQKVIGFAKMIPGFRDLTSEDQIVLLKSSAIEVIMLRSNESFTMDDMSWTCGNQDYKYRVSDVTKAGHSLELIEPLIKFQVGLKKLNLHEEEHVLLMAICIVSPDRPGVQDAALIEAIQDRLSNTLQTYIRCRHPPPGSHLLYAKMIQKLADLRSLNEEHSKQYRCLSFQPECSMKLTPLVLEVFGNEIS
Test: intrinsic tryptophan fluorescence quenching titration
Type: binding

## O=c1c(O)c(-c2ccc(O)c(O)c2)oc2cc(O)cc(O)c12 [quercetin]
  Kd: 21.1 ± 4.31 µM
